Assay results: patent publication US8653132B2, “Phosphaplatins and their use in pharmaceutical compositions” (Ohio University, priority 2007, dated 2014)
Entries after “also recorded” stand apart in the source; their conditions may differ.

Key:
[1] = tested on: CHO cell line; experiment: Cytotoxic assay, CHO; type: cell-based
Source text: In some embodiments, the complexes of the present invention are useful for treating various cancers. […] The complexes of the present invention are particularly desirable because they may have reduced toxicity in vivo.

[2] = tested on: A2780 human ovarian cancer cells; experiment: Clonogenic assay, A2780; type: cell-based; conditions: 1 hour drug treatment, 1 week colony formation, read-out: IC50 A780
Method: (§1) Human ovarian cancer cells, A2780, were obtained from Dr. Thomas Hamilton (Fox Chase Cancer Center, Philadelphia, Pa.). Cells were cultured on monolayer using RPMI 1640 supplemented with 10% fetal bovine serum, 2 mM glutamine, 0.25 units/mL insulin and penicillin/streptomycin in a 37 degrees C. incubator continuously gassed with 5% CO2. Cells were subcultured using 0.0625% trypsin in HBSS to maintain cells in exponential growth.
(§2) IC50 values were determined using a clonogenic assay. Briefly, 500 A2780 cells from a single cell suspension were plated onto 60mm Petri plates 24 hours before drug treatment to permit cell attachment. On the day of drug treatment, the medium was decanted and replaced with the drug and these treated cells were placed back into the 37 degrees C. incubator for 1 hour. Triplicate plates were set up for each drug concentration. After the 1 hour drug treatment, the drug containing medium was decanted and replaced with fresh medium. These plates were returned to the 37 degrees C. incubator for 1 week for colony formation. Colonies were fixed and stained using 2% crystal violet in absolute methanol. Colonies containing more than 50 cells were scored. The number of scored colonies from the triplicate plates was averaged and this number was divided by the number of cells plated to obtain a value for the fraction of cells forming colonies. These values for fraction of cells forming colonies were then corrected for plating efficiency by dividing it by the number of cells forming colonies in plates that were not treated with drug.

[3] = tested on: A2780/C30 cisplatin-resistant ovarian cell line; experiment: Clonogenic assay, cisplatin/carboplatin-resistant C30; type: cell-based, human; conditions: 1 hour drug treatment, 1 week colony formation
Method: as §1, with “A cisplatin-resistant Ovarian cell line (C30) (Hamaguchi, et al., 1993),” for “Human ovarian cancer cells, A2780, were”, “Pa.), was treated with the monomeric platinum complexes of the present invention (shown in FIG. 2). This cell line is also cross resistant to carboplatin.” for “Pa.).”, “0.025%” for “0.0625%”
as §2, with “500 C30” for “500 A2780”, “onto 60 mm” for “onto 60mm”, “the one” for “the 1”, “dividing them” for “dividing it”

[4] = pKa from 31P chemical shift as a function of pH; type: physicochemical; conditions: for pKa1 / pKa2: calculated from phosphorus-31 chemical shifts
[5] = tested on: calf-thymus DNA, oligonucleotide, dGpG, 5'-dGMP and 5'-dAMP; experiment: Platinum binding to DNA and nucleotides by NMR; conditions: 1H NMR, up to seven days
Method: (§3) In the associated experiment, dach-2 was allowed to react with double-stranded calf-thymus DNA, a synthetic oligonucleotide (5′-[…]-3′; SEQ ID NO:1), a dinucleotide (dGpG), and nucleotide monophosphates (5′-dGMP and 5′-dAMP) at concentrations as much as 250-times higher than those of cellular doses. The extent of DNA binding was monitored by ^1H NMR spectroscopy. In parallel, similar reactions with cisplatin were conducted under identical conditions.
(§4) Proton NMR spectroscopic experiments were conducted on a Bruker 500 MHz NMR instrument in 99% (atom) D2O with a water suppression pulse sequence. Samples contained cisplatin (2.0 mM) or pyrodach-2 (2.0 mM) and nucleotides (5′-dGMP, 5′-dAMP, dGpG (5.0 mM)), and, single- and double stranded DNA (calf thymus, 5.0 mM) at pH 7.0 maintained by phosphate and carbonate buffers (10-20 mM). Reactions of cisplatin (0.25 mM) and pyrodach-2 (0.25 mM) with a synthetic 25-mer: 5′-[…]-3′ (SEQ ID NO: 1) (0.25 mM) were also performed under identical conditions. Reactions were carried out up to 7 days, and ^1H and ^31P NMR spectra were recorded at regular time intervals. Usually, a pulse width of 5 μs with a 1.0 s repetition delay was used for the measurements. Typically, a sweepwidth of 10,000 Hz and 32 K data points were selected to collect the Free Induction Decays. A line broadening factor of 1 Hz was for applied Fourier transformation. […]

[6] = tested on: A2780/C30 cells; experiment: Cellular accumulation of platinum by atomic absorption, A2780/C30; type: cell-based, human; conditions: 1 hr exposure
Method: (§5) Platinum content was quantitatively estimated on a Graphite Furnace Atomic Absorption Spectrometer (Perkin Elmer AA-600) from calibration curves established by using cisplatin or pyrodach-2 in water. Cells (5×10^6) were seeded in T75 cm^2 flasks. After 24 h, these cells were then treated with the different concentrations (0, 10, 20, 30 and 50 μM) of cisplatin and pyrodach-2. After 1 hr exposure with the platinum complexes, the drug-containing medium was removed and the cells were washed with ice-cold phosphate-buffered saline (PBS). The cells were then trypsinized and centrifuged into a pellet. Cell pellets were digested in concentrated HNO3 and H2O2 prior to analysis, according to the method of McGahan. Data reported in Table 4 were collected from three independent experiments each was carried out in duplicate. For the cisplatin accumulation, data were obtained from triplicate runs from a single sample at a given concentration.

[7] = tested on: synthetic 25-mer oligonucleotide (SEQ ID NO:1); experiment: Platinum-DNA binding by NMR, 25-mer oligonucleotide; conditions: 1H NMR, identical conditions for both complexes
Method: as §3, §4

[8] = tested on: BAX; experiment: Apoptotic gene array, real-time PCR: BAX; type: cell-based; conditions: preliminary
Method: (§6) Preliminary gene expression experiments involving complexes of the present invention as compared to cisplatin (data not shown) were carried out with an apoptotic array containing 84 genes that includes the BCL2 superfamily, both pro- and anti-apoptotic, caspases, the BIR-family, TNF receptor […] factors, p53 and its congeners, and fas associated members by real-time PCR. A closer look at the two sets of gene expressions clearly indicates a number of differences in the expression patterns. […] Specifically, fas was over-expressed by 6-fold compared to the control, and TNFRS genes such as TNFRSF-10B was overexpressed by 2-3 folds over controls. These latter receptor factors belong to the fas superfamily.

[9] = tested on: BAK1; experiment: Apoptotic gene array, real-time PCR: BAK1; type: cell-based; conditions: preliminary
Method: as §6

[10] = tested on: A2780/C30 cells; experiment: Cellular accumulation of platinum by atomic absorption, A2780/C30; type: cell-based, human; conditions: at its IC50 value
[11] = tested on: A2780 cells; experiment: Cellular accumulation of platinum by atomic absorption, A2780; type: cell-based, human; conditions: for Cellular accumulation of platinum: 1 hr exposure
Method: as §5

[12] = tested on: fas; experiment: Apoptotic gene array, real-time PCR: fas; type: cell-based; conditions: preliminary
Method: as §6

[13] = tested on: UMSCC10b (Cisplatin-sensitive) cells; conditions: from Zheng et al., Clinical Cancer Research 1997; cited from earlier work
[14] = tested on: guanine base; experiment: Guanine base binding by proton NMR; conditions: cisplatin after 48 hours, am-2 96 hours, dach-2 106 hours
Method: FIG. 12 is a comparison of guanine base binding (the predominant DNA binding site of cisplatin) among cisplatin (bottom), am-2 (middle), and dach-2 (top) by proton NMR spectroscopy. […] The bottom spectrum was recorded after 48 hours. The middle and top spectra were recorded after 96 and 106 hours, respectively.
Proton NMR spectroscopic experiments were conducted on a Bruker 500 MHz NMR instrument in 99% (atom) D2O with a water suppression pulse sequence. Samples contained cisplatin (2.0 mM) or pyrodach-2 (2.0 mM) and nucleotides (5′-dGMP, 5′-dAMP, dGpG (5.0 mM)), and, single- and double stranded DNA (calf thymus, 5.0 mM) at pH 7.0 maintained by phosphate and carbonate buffers (10-20 mM). Reactions of cisplatin (0.25 mM) and pyrodach-2 (0.25 mM) with a synthetic 25-mer: 5′-[…]-3′ (SEQ ID NO: 1) (0.25 mM) were also performed under identical conditions. Reactions were carried out up to 7 days, and ^1H and ^31P NMR spectra were recorded at regular time intervals. Usually, a pulse width of 5 μs with a 1.0 s repetition delay was used for the measurements. Typically, a sweepwidth of 10,000 Hz and 32 K data points were selected to collect the Free Induction Decays. A line broadening factor of 1 Hz was for applied Fourier transformation. The chemical shifts, with reference to H—O-D peak, are at 4.67 ppm.

N.N.O=P1(O)OP(=O)(O)[O][Pt]([OH])([OH])[O]1 [am-4, Cis-diammine-trans-dihydroxo(dihydrogen pyrophosphato)platinum (IV)]
IC50 [1]: > 200 µM
IC50 [2]: 175 ± 22 µM
IC50 [3]: > 200 µM
pKa1 [4]: 2.0 ± 0.1
pKa2 [4]: 4.7 ± 0.1

NCCN.O=P([O-])(O)OP(=O)([O-])O.[Pt+2] [en-2, 1,2-Ethanediamine(dihydrogenpyrophosphato)platinum(II)]
pKa1 [4]: 2.2 ± 0.1
pKa2 [4]: 4.4 ± 0.1

N.N.[Cl][Pt][Cl] [Cisplatin, cisdiamminedichloroplatinum(II), reference compound]
adduct formation with nucleotides [5]: readily formed adducts with all the nucleotides
Cellular accumulation of platinum ([6]; A2780/C30, 10 μM): 1.00 ± 0.10 ng/10^6 cells
Cellular accumulation of platinum ([6]; A2780/C30, 20 μM): 2.00 ± 0.40 ng/10^6 cells
Cellular accumulation of platinum ([6]; A2780/C30, 30 μM): 2.00 ± 0.50 ng/10^6 cells
Cellular accumulation of platinum ([6]; A2780/C30, 50 μM): 5.00 ± 1.00 ng/10^6 cells
DNA binding, 25-mer oligonucleotide [7]: readily forms covalent adducts with DNA
BAX overexpression [8]: did not make significant changes
BAK1 overexpression [9]: did not make significant changes
IC50 [1]: 29 ± 3 µM
platinum accumulation in the resistant cell lines [10]: > 5 ng Pt/10^6 cells
Cellular accumulation of platinum ([11]; A2780, 10 μM): 3.00 ± 0.05 ng/10^6 cells
Cellular accumulation of platinum ([11]; A2780, 20 μM): 5.00 ± 0.06 ng/10^6 cells
Cellular accumulation of platinum ([11]; A2780, 30 μM): 6.00 ± 0.10 ng/10^6 cells
Cellular accumulation of platinum ([11]; A2780, 50 μM): 20.00 ± 1.00 ng/10^6 cells
accumulation in A2780 cells ([11]; at 10 μM concentration): 3.0 ng Pt/10^6 cells
fas over-expression compared to the control [12]: no significant over-expression; also recorded: marginal changes
IC50 [2]: 7.5 ± 1.5 µM
IC50 [3]: 110 ± 11.3 µM
IC50 [13]: 17 µM
guanine base binding (H8 signal) [14]: additional signal at 8.43 ppm for H8 proton due to guanine binding to cisplatin

N.N.O=C([O-])C1(C(=O)[O-])CCC1.[Pt+2] [Carboplatin, diammine-1,1-dicarcarboxylatocyclobutane-platinum(II), reference compound]
IC50 [1]: > 200 µM
IC50 [2]: 90 ± 13 µM
IC50 [3]: > 200 µM

NCCN.O=P([O-])(O)OP(=O)([O-])O.[OH-].[OH-].[Pt+4] [en-4, 1,2-Ethanediamine-trans-dihydroxo(dihydrogenpyrophosphato)platinum(IV)]
IC50 [1]: > 200 µM
IC50 [2]: 170 ± 33 µM
IC50 [3]: > 200 µM
pKa1 [4]: <2
pKa2 [4]: 4.3 ± 0.1

N.N.O=P1(O)[O][Pt][O]P(=O)(O)O1 [am-2, Diammine(dihydrogen pyrophosphato)platinum(II)]
IC50 [1]: 120 ± 30 µM
IC50 [2]: 100 ± 11 µM
IC50 [3]: > 200 µM
guanine base binding (H8 signal) [14]: only indicates the unbound guanine H8 signal but not platinum bound signal
pKa1 [4]: 2.9 ± 0.3
pKa2 [4]: 4.7 ± 0.2
pKa1 (value in parentheses) ([4]; second value printed in parentheses under pKa1, not explained): (3.8 ± 0.1)

NC1CCCCC1N.O=P([O-])(O)OP(=O)([O-])O.[OH-].[OH-].[Pt+4] [dach-4, (Trans-1,2-cyclohexanediamine)-trans-dihyroxo(dihydrogenpyrophosphato)platinum(IV)]
IC50 [1]: 116 ± 17 µM
IC50 [2]: 180 ± 15 µM
IC50 [3]: 155 ± 17 µM
